Experimental data: patent publication US20250161290A1, “CO-CRYSTALS” (CereSpir Incorporated, priority 2021, published 2025)
Values after ≈ are worked out from the molar mass of the structure shown. “Also recorded” adds a separate entry of the source.

Tests used:
[1] = Consolidated qualitative solubility results (Tables 6 and 8); conditions: for consolidated solubility result: Table 6; for qualitative solvent solubility overlaid with cocrystallization screens' results: Table 8, numbers are molar concentrations pending investigation
[2] = in vivo, cited from earlier work
[3] = XRPD of pre-exposed and post-exposed DVS samples (solid form stability); assay type: physicochemical; conditions: two DVS sorption/desorption cycles, 5-95% RH, 25° C.
Procedure: X-ray powder diffraction analyses are obtained using a BRUKER D8 ADVANCE equipped with a Cu radiation source operated at 40 kV and 40 mA (λ=1.54 Å after Ni filtering) configured in a Bragg-Brentano geometry, equipped with a 90-position AUTO-CHANGER and a silicon strip detector (SSD160-2). A coupled theta-two theta continuous PSD (Position Sensitive Device) fast scan from 4 to 40 degrees are collected over approximately 32 minutes (0.5 sec/0.01° step). A sample is placed onto a polished zero-background silicon wafer by gently distributing onto the flat surface and is analyzed as a flat plate specimen.
(§1) Samples are analyzed using a TA Instruments Q5000SA gravimetric water sorption analyzer. The relative humidity (RH) is adjusted in 10% RH increments between 5-95% (±1% RH) at 25° C. (±0.5%° C.). The mass of a sample is continuously monitored and recorded with respect to RH and time with criteria for mass equilibrium set as a percent mass change <0.0100 for 5 minutes with a time limit of 720 minutes per step. The humidity is controlled by mixing dry and wet nitrogen streams with a total flow rate of 200 mL/min. The instrument control and data analysis are operated under Advantage for Q Series and Universal Analysis software, respectively.

[4] = test system: patients with mild cognitive impairment (MCI); conditions: listed as itanapraced, cited from earlier work
[5] = Solubility assessment of CSP-1103 in organic solvents (qualitative); assay type: physicochemical; conditions: organic solvent or mixture, thermodynamic from solid
rats after TBI = conditions: cited from earlier work
[6] = Solubility assessment of CSP-1103 in organic solvents (qualitative); assay type: physicochemical; conditions: organic solvent or mixture, thermodynamic from solid, qualitative solubility at 0.2 M, gentle heating 45° C. 1 minute if required
Procedure: The solubility assessment of CSP-1103 was then performed. Approximately 0.05 mmol of CSP-1103 was weighed out into a 1-dram vial, enough solvent was added to achieve a 0.2 M concentration, and if required, gentle heating was applied at 45° C. for 1 minute. […] After 12 hours, observations were made to determine if the API had remained in solution.

[7] = Dynamic Vapor Sorption (DVS) water sorption/desorption; assay type: physicochemical; conditions: for Mass Change: 25° C.
Procedure: as §1

[8] = Coformer and CSP-1103 aqueous solubility assessment (qualitative); assay type: physicochemical; conditions: water, thermodynamic from solid, 0.05 M aqueous concentration, gentle heating at 45° C. for 1 minute
Procedure: In a 1-dram vial, enough solvent was added to achieve a 0.05 M aqueous concentration along with some gentle heating at 45° C. for 1 minute to determine if the material would completely dissolve. After 24 hours, observations were made to determine if the material had remained in solution.

[9] = Thermogravimetric analysis (TGA), degradation onset; assay type: physicochemical; conditions: 10° C. per minute, nitrogen purge
Procedure: TGA data are collected using a TA Instruments Discovery TGA equipped with an autosampler. Typically, 2-5 mg of sample is placed in a pre-tared, Tzero aluminum pan either as a hermetically sealed pan which would be automatically punched open before sample loading for analysis, or as an open pan. A 10° C. per minute ramp rate from ambient temperature to 375° C. using a 25 mL/min nitrogen purge is used. The instrument control and data analysis are operated under TRIOS software.

[10] = Phase 2, MCI patients, CSF / brain

**Q.** Which consolidated solubility result ([1]; MTBE) does the source give for `O=C(O)C1(c2ccc(-c3ccc(Cl)c(Cl)c3)c(F)c2)CC1` [CSP-1103, 1-(3′,4′-dichloro-2-fluoro[1,1′-biphenyl]-4-yl)-cyclopropanecarboxylic acid] here?
**A.** ✓

**Q.** And the “qualitative solvent solubility overlaid with cocrystallization screens' results” value (shortened to “qualitative solvent solubility overlaid”) ([1]; acetone (BP 56° C.))?
**A.** 50 mM

**Q.** What about the consolidated solubility result ([1]; acetone) of the same compound?
**A.** ✓

**Q.** And the “qualitative solvent solubility overlaid” value ([1]; ethanol (BP 79° C.))?
**A.** 50 mM

**Q.** What about the consolidated solubility result ([1]; ethanol) of the same compound?
**A.** ✓

**Q.** What about the consolidated solubility result ([1]; ethyl acetate) of the same compound?
**A.** ✓

**Q.** What about the “qualitative solvent solubility overlaid” value ([1]; methanol (BP 65° C.)) of the same compound?
**A.** 50 mM

**Q.** And the consolidated solubility result ([1]; methanol)?
**A.** ✓

**Q.** What about the oral bioavailability ([2]; po) of the same compound?
**A.** good oral bioavailability

**Q.** And the “penetration into the brain” value [2]?
**A.** substantial penetration into the brain

**Q.** What about the plasma half-life [2] of the same compound?
**A.** long plasma half-life

**Q.** What about the “solid form change after DVS exposure (XRPD pre- vs post-exposed)” value [3] of the same compound?
**A.** no solid form change

**Q.** And the “solid form change after DVS exposure (XRPD pre- vs post-exposed)” value ([3]; listed as CSP)?
**A.** no solid state form changes

**Q.** And the safety and tolerability ([4]; Phase 2, MCI patients treated up to two years)?
**A.** good safety and tolerability; also recorded: well tolerated

**Q.** What about the “TNF-α (neuroinflammatory mediator)” value [4, 10] of the same compound?
**A.** beneficial dose-related CSF differences; also recorded: dose-related statistically significant reductions

**Q.** What about the “soluble CD40 ligand (neuroinflammatory mediator)” value [4, 10] of the same compound?
**A.** beneficial dose-related CSF differences; also recorded: dose-related statistically significant reductions

**Q.** And the “total tau (marker of neurodegeneration)” value [4, 10]?
**A.** beneficial dose-related CSF differences; also recorded: dose-related statistically significant reductions

**Q.** What about the cognitive function ([4]; throughout the duration of the trial) of the same compound?
**A.** stable cognition; also recorded: stable cognitive function

**Q.** What about the solubility ([5]; MTBE, qualitative solubility at 0.1 M, gentle heating if required) of the same compound?
**A.** > 100 mM

**Q.** What about the solubility ([5]; acetone, qualitative solubility at 0.05 M, gentle heating if required) of the same compound?
**A.** > 50 mM

**Q.** And the solubility ([5]; acetone, qualitative solubility at 0.1 M, gentle heating if required)?
**A.** < 100 mM

**Q.** What about the solubility ([5]; acetonitrile, qualitative solubility at 0.05 M, gentle heating if required) of the same compound?
**A.** < 50 mM

**Q.** What about the solubility ([5]; acetonitrile, qualitative solubility at 0.1 M, gentle heating if required) of the same compound?
**A.** < 100 mM

**Q.** And the solubility ([5]; ethanol, qualitative solubility at 0.05 M, gentle heating if required)?
**A.** > 50 mM

**Q.** And the solubility ([5]; ethanol, qualitative solubility at 0.1 M, gentle heating if required)?
**A.** < 100 mM

**Q.** And the solubility ([5]; ethyl acetate, qualitative solubility at 0.1 M, gentle heating if required)?
**A.** > 100 mM

**Q.** What about the solubility ([5]; ethyl acetate, qualitative solubility at 0.2 M, gentle heating 45° C. 1 minute if required) of the same compound?
**A.** < 200 mM

**Q.** And the solubility ([5]; methanol, qualitative solubility at 0.05 M, gentle heating if required)?
**A.** > 50 mM

**Q.** And the solubility ([5]; methanol, qualitative solubility at 0.1 M, gentle heating if required)?
**A.** < 100 mM

**Q.** And the solubility ([5]; methanol, qualitative solubility at 0.2 M, gentle heating 45° C. 1 minute if required)?
**A.** < 200 mM

**Q.** What about the “accumulation of hypertrophic microglia in the injured brain” value (rats after TBI) of the same compound?
**A.** prevented the accumulation of hypertrophic microglia

**Q.** And the acute lung injury (rats after TBI)?
**A.** attenuated

**Q.** And the neurological injury (rats after TBI)?
**A.** attenuated

**Q.** What about the solubility (physchem; MTBE, organic solvent or mixture) of the same compound?
**A.** 100 mM (≈ 32.5 mg/mL)

**Q.** And the solubility (physchem; acetonitrile, organic solvent or mixture)?
**A.** < 50 mM

**Q.** What about the solubility (physchem; ethyl acetate, organic solvent or mixture) of the same compound?
**A.** 100 mM (≈ 32.5 mg/mL)

**Q.** What about the solubility (physchem; water) of the same compound?
**A.** < 50 mM

**Q.** And the solubility ([6]; MTBE)?
**A.** < 200 mM

**Q.** And the solubility ([6]; acetone)?
**A.** < 200 mM

**Q.** And the solubility ([6]; acetonitrile)?
**A.** < 200 mM

**Q.** And the solubility ([6]; ethanol)?
**A.** < 200 mM

**Q.** What about the “Mass Change” value ([7]; Cycle 1 of 2, Adsorption, RH 5 to 95%) of the same compound?
**A.** 1.10%

**Q.** And the “Mass Change” value ([7]; Cycle 1 of 2, Desorption, RH 95 to 5%)?
**A.** −1.11%

**Q.** What about the “Mass Change” value ([7]; Cycle 2 of 2, Adsorption, RH 5 to 95%) of the same compound?
**A.** 1.13%

**Q.** What about the “Mass Change” value ([7]; Cycle 2 of 2, Desorption, RH 95 to 5%) of the same compound?
**A.** −1.13%

**Q.** What about the hygroscopicity classification ([7]; at 95% RH, Ph. Eur. 9.0 (slightly: <2% and ≥0.2%; non: <0.2%)) of the same compound?
**A.** slightly hygroscopic

**Q.** And the “average water sorbed or desorbed” value ([7]; between 5-95% RH)?
**A.** 1.1±0.0%

**Q.** What about the solubility [8] of the same compound?
**A.** < 50 mM

**Q.** What about the “degradation start by TGA” value [9] of the same compound?
**A.** > 200 °C
